Source: ChEMBL document CHEMBL4477239 (Bioorg Med Chem, 2016)
pIC50: −log10 of the molar value.

Experiments:
NCI-H1993 = test: Cytotoxicity against human NCI-H1993 cells assessed as growth inhibition after 72 hrs by CCK-8 assay; conditions: NCI-H1993, 72 h
[1] = target: Hepatocyte growth factor receptor (Homo sapiens, UniProt P08581)
Description: Inhibition of c-Met kinase (unknown origin) assessed as decrease in phosphorylation of TK substrate-biotin peptide preincubated for 5 to 10 mins followed by ATP addition measured after 30 mins by HTRF assay

Cytochrome P450 3A4 = Cytochrome P450 3A4 (Homo sapiens, UniProt P08684); test: Time-dependent inhibition of CYP3A4 in human liver microsomes at 10 uM using troleandomycin as […] preincubated with compound followed by NADPH addition by LC-MS/MS analysis; assay type: ADME
[2] = Intrinsic clearance in human liver microsomes assessed per mg of protein at 1 uM preincubated for 5 mins followed by NADPH addition measured after 5 to 30 mins by LC-MS/MS analysis; assay type: ADME, Microsome; conditions: read-out: CLH
Cytochrome P450 2C9 = Cytochrome P450 2C9 (Homo sapiens, UniProt P11712); test: Inhibition of CYP2C9 in human liver microsomes at 10 uM using sulfaphenazole as […] preincubated for 5 mins followed by NADPH addition measured after 20 mins by LC-MS/MS analysis; assay type: ADME
Cytochrome P450 2D6 = Cytochrome P450 2D6 (Homo sapiens, UniProt P10635); test: Time-dependent inhibition of CYP2D6 in human liver microsomes at 10 uM using paroxetine as […] preincubated with compound followed by NADPH addition by LC-MS/MS analysis; assay type: ADME
[3] = Intrinsic clearance in rat liver microsomes assessed per mg of protein at 1 uM preincubated for 5 mins followed by NADPH addition measured after 5 to 30 mins by LC-MS/MS analysis; assay type: ADME, Microsome; conditions: read-out: CLH
Cytochrome P450 1A2 = target: T1, Cytochrome P450 1A2 (Homo sapiens, UniProt P05177); test: Time-dependent inhibition of CYP1A2 in human liver microsomes at 10 uM using furafylline as […] preincubated with compound followed by NADPH addition by LC-MS/MS analysis; assay type: ADME
T1 sequence (P05177 whole entry): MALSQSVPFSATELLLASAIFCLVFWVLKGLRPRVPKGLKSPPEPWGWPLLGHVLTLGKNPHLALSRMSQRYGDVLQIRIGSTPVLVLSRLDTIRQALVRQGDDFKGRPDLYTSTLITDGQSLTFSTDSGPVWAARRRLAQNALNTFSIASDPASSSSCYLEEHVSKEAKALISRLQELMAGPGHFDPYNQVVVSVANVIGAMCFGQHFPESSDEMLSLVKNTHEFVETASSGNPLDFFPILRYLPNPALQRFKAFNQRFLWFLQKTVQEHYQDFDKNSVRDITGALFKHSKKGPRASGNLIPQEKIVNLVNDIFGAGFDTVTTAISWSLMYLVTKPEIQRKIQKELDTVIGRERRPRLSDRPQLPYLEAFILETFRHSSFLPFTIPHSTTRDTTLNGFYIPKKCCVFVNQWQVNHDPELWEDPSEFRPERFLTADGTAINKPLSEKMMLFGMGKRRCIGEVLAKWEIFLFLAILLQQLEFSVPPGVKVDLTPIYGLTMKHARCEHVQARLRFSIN

Sequence of Hepatocyte growth factor receptor (P08581 whole entry): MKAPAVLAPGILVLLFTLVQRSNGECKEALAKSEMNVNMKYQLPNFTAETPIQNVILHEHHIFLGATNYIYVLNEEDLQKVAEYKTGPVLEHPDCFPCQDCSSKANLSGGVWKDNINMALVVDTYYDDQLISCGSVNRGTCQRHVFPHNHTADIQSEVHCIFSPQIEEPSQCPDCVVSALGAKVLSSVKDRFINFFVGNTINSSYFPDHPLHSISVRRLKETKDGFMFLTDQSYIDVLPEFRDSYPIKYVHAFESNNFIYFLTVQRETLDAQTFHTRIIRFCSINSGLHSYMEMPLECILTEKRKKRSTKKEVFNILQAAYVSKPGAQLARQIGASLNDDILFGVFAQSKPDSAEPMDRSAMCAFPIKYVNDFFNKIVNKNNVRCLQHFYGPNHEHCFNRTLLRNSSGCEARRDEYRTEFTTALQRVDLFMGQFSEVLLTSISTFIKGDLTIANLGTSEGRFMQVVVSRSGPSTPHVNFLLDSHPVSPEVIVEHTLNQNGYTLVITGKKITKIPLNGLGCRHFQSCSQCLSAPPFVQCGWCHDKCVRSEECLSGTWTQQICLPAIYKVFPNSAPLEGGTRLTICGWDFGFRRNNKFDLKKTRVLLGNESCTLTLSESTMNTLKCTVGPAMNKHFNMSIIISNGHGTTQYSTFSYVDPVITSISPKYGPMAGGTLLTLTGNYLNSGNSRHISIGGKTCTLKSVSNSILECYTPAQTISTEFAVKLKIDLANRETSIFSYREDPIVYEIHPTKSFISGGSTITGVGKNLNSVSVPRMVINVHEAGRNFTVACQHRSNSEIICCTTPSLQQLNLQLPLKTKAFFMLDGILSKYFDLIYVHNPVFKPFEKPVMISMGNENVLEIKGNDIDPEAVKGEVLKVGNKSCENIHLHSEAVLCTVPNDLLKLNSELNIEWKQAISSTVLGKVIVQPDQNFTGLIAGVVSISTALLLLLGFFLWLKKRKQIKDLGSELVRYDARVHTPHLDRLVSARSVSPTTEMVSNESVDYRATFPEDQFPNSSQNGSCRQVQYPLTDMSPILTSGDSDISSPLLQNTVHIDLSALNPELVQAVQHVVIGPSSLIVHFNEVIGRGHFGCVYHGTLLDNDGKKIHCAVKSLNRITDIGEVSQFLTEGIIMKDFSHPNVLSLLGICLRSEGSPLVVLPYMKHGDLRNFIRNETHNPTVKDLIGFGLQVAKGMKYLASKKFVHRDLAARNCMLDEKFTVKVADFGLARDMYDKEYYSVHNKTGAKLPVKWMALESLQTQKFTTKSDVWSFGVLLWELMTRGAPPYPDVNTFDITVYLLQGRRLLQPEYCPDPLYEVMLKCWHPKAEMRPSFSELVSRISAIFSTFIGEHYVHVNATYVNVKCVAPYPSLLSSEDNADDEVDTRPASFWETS
Sequence of Cytochrome P450 3A4 (P08684 whole entry): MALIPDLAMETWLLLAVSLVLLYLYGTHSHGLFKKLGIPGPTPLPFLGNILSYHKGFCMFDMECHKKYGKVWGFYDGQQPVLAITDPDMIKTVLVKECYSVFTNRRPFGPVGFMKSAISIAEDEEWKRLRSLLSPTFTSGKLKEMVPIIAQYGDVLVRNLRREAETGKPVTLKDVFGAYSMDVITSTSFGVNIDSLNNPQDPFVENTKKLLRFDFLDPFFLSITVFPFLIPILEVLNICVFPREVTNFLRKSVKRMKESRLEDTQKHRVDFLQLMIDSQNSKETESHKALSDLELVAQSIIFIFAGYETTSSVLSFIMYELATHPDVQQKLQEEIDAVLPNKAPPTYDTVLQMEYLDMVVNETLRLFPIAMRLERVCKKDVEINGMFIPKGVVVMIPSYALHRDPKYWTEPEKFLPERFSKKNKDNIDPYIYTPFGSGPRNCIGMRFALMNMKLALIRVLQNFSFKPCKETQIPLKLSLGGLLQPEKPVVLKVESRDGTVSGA
Sequence of Cytochrome P450 2D6 (P10635 whole entry): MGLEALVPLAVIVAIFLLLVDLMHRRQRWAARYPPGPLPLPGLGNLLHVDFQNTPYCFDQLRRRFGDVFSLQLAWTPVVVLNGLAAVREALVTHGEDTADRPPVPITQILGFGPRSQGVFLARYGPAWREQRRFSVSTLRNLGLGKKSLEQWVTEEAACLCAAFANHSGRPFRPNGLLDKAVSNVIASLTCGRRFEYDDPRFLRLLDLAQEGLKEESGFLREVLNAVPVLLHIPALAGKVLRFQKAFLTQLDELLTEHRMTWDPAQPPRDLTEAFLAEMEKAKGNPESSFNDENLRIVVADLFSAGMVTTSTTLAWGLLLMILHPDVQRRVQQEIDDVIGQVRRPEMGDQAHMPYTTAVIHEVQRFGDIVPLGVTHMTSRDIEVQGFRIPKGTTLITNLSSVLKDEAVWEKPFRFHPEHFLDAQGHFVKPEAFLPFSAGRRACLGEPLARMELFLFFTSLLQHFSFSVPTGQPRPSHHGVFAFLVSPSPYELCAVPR
Sequence of Cytochrome P450 2C9 (P11712 whole entry): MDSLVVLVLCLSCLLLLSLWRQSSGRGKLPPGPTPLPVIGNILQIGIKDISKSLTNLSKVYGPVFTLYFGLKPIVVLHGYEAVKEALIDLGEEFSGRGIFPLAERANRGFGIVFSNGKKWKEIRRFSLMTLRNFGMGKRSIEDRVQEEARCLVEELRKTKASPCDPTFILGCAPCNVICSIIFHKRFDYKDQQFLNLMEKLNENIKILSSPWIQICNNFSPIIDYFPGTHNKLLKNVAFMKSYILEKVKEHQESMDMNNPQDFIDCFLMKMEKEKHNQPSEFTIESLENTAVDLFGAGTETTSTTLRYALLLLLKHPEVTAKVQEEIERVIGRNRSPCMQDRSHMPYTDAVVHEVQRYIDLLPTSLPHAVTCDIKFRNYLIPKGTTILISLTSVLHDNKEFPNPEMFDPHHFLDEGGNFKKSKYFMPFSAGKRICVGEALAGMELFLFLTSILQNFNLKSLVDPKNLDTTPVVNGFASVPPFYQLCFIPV

SMILES | pIC50 (NCI-H1993) | pIC50 [1] | other results
CC(NC/N=C/c1ccncc1)c1ccc2ncccc2c1 (configuration not stated) | 6.21 | 8.44 | 
CC(c1c(F)cc2ncccc2c1F)n1cnc2ncc(-c3ccccc3)nc21 (configuration not stated) | 6.29 | 8.74 | 
Cc1c(C(C)n2cnc3ncc(-c4cnn(CCO)c4)nc32)ccc2ncccc12 (configuration not stated) | 6.14 | 8.38 | 
CC(NC/N=C/c1ccccc1)c1ccc2ncccc2c1 (configuration not stated) | 5.91 | 8.29 | 
CCC(c1cc2cccnc2cc1F)n1cnc2ncc(-c3ccc(C(N)=O)c(F)c3)nc21 (configuration not stated) | 6.65 | 8.60 | 
Cc1cc2ncccc2cc1C(C)n1cnc2ncc(-c3cnc4ccccc4c3)nc21 (configuration not stated) |  | 7.42 | 
Cc1cc2ncccc2cc1C(C)n1cnc2ncc(-c3ccncc3)nc21 (configuration not stated) |  | 7.17 | 
CCC(c1ccc2ncccc2c1F)n1cnc2ncc(-c3cnn(CCO)c3)nc21 (configuration not stated) |  | 7.65 | 
COC(=O)c1ccc(-c2cnc3ncn(C(C)c4cc5cccnc5cc4C)c3n2)cc1F (configuration not stated) |  | 7.19 | 
CCC(c1cc2cccnc2cc1F)n1cnc2ncc(-c3ccc(C(=O)NC)c(F)c3)nc21 (configuration not stated) |  | 8.03 | 
OCCn1cc(-c2cnc3ncn(Cc4ccc5ncccc5c4)c3n2)cn1 | 5.63 | 7.80 | 
FC(F)(F)Oc1ccc(-c2cnc3ncn(Cc4ccc5ncccc5c4)c3n2)cc1 | < 5.00 | 7.09 | 
CC(NC/N=C/C1=CCNCC1)c1ccc2ncccc2c1 (configuration not stated) | 5.57 | 7.82 | 
c1cnc2ccc(Cn3cnc4ncc(-c5ccncc5)nc43)cc2c1 | 5.94 | 7.76 | 
Nc1ccc(-c2cnc3ncn(Cc4ccc5ncccc5c4)c3n2)cc1 | 5.31 | 7.91 | 
CNC(=O)c1ccc(-c2cnc3ncn(C(C)c4cc5cccnc5cc4C)c3n2)cc1F (configuration not stated) |  | 7.51 | 
CC(c1cc(F)c2ncccc2c1)n1cnc2ncc(-c3ccccc3)nc21 (configuration not stated) | < 5.00 | 6.81 | 
COC(=O)c1ccc(/C=N/CNC(C)c2ccc3ncccc3c2)cc1F (configuration not stated) | 5.96 | 8.19 | 
CCC(c1cc2cccnc2cc1F)n1cnc2ncc(-c3cnc4ccccc4c3)nc21 (configuration not stated) |  | 7.76 | 
C[C@H](c1cc2cccnc2cc1F)n1cnc2ncc(-c3ccc(C(N)=O)c(F)c3)nc21 | 6.48 | 8.55 | 
CCC(c1cc2cccnc2cc1F)n1cnc2ncc(-c3ccccc3)nc21 (configuration not stated) |  | 7.55 | 
CC(NC/N=C/c1ccnn1C)c1ccc2ncccc2c1 (configuration not stated) | 5.48 | 7.42 | 
CCC(c1cc2cccnc2cc1F)n1cnc2ncc(-c3cn[nH]c3)nc21 (configuration not stated) |  | 8.06 | 
Cc1c(C(C)n2cnc3ncc(-c4ccncc4)nc32)ccc2ncccc12 (configuration not stated) | 6.02 | 8.36 | 
COC(=O)c1ccc(-c2cnc3ncn(C(C)c4c(F)cc5ncccc5c4F)c3n2)cc1F (configuration not stated) | 7.53 | 8.31 | inhibition (INH) (Cytochrome P450 3A4): Not Active; microsomal CLint at 1 µM [2]: 290 µL/min/mg; inhibition (INH) (Cytochrome P450 2C9): Active; inhibition (INH) (Cytochrome P450 2D6): Not Active; microsomal CLint at 1 µM [3]: 179 µL/min/mg; inhibition (INH) (Cytochrome P450 1A2): Not Active

SMILES | pIC50 (NCI-H1993) | pIC50 [1] | other results
CCC(c1ccc2ncccc2c1F)n1cnc2ncc(-c3ccc(C(=O)OC)c(F)c3)nc21 (configuration not stated) |  | 7.41 | 
CCC(c1ccc2ncccc2c1F)n1cnc2ncc(-c3ccncc3)nc21 (configuration not stated) |  | 7.00 | 
CNC(=O)c1ccc(/C=N/CNC(C)c2ccc3ncccc3c2)cc1F (configuration not stated) | 6.72 | 8.40 | 
Oc1nc2ncc(-c3ccccc3)nc2n1Cc1ccc2ncccc2c1 | < 5.00 | < 6.00 | 
Cn1nccc1-c1cnc2ncn(Cc3ccc4ncccc4c3)c2n1 | 5.10 | 7.18 | 
FC(F)(F)c1ccc(-c2cnc3ncn(Cc4ccc5ncccc5c4)c3n2)cc1 | < 5.00 | 7.55 | 
C1=C(c2cnc3ncn(Cc4ccc5ncccc5c4)c3n2)CCNC1 | 5.18 | 7.48 | 
CC(c1cc2cccnc2cc1F)n1cnc2ncc(-c3ccncc3)nc21 (configuration not stated) | 6.77 | 8.42 | 
CC(NC/N=C/c1cn[nH]c1)c1ccc2ncccc2c1 (configuration not stated) | 6.28 | 7.94 | 
CCC(c1cc2cccnc2cc1F)n1cnc2ncc(-c3cnn(CCO)c3)nc21 (configuration not stated) |  | 8.03 | 
Cc1cc2ncccc2cc1C(C)n1cnc2ncc(-c3cnn(C)c3)nc21 (configuration not stated) |  | 7.49 | 
CCC(c1cc2cccnc2cc1F)n1cnc2ncc(-c3ccncc3)nc21 (configuration not stated) |  | 7.85 | 
CCC(c1ccc2ncccc2c1F)n1cnc2ncc(-c3cnc4ccccc4c3)nc21 (configuration not stated) |  | 7.79 | 
C[C@H](c1cc2cccnc2cc1F)n1cnc2ncc(-c3cnn(C)c3)nc21 | 6.62 | 8.71 | 
CC(c1c(F)cc2ncccc2c1F)n1cnc2ncc(-c3cccc4ccccc34)nc21 (configuration not stated) |  | 7.62 | 
CC(c1cc2cccnc2cc1F)n1cnc2ncc(-c3cnc4ccccc4c3)nc21 (configuration not stated) | 6.96 | 8.47 | 
Cc1cc2ncccc2cc1C(C)n1cnc2ncc(-c3ccc(C(N)=O)c(F)c3)nc21 (configuration not stated) |  | 7.93 | 
CCC(c1ccc2ncccc2c1F)n1cnc2ncc(-c3ccc(C(=O)NC)c(F)c3)nc21 (configuration not stated) |  | 8.11 | 
CC(c1cc2cccnc2cc1F)n1cnc2ncc(-c3ccccc3)nc21 (configuration not stated) | 6.24 | 8.34 | 
CC(NC/N=C/c1cnc2[nH]ccc2c1)c1ccc2ncccc2c1 (configuration not stated) | 6.02 | 8.48 | 
CCC(c1cc2cccnc2cc1F)n1cnc2ncc(-c3ccc(C(=O)OC)c(F)c3)nc21 (configuration not stated) |  | 7.74 | 
CCC(c1ccc2ncccc2c1F)n1cnc2ncc(-c3ccc(C(N)=O)c(F)c3)nc21 (configuration not stated) | 6.18 | 8.80 | 
CC(c1cc(F)c2ncccc2c1)n1cnc2ncc(-c3cccc4ccccc34)nc21 (configuration not stated) |  | < 6.00 | 
Cc1c(C(C)n2cnc3ncc(-c4cn[nH]c4)nc32)ccc2ncccc12 (configuration not stated) | 6.22 | 8.57 | 
c1ccc(-c2cnc3ncn(Cc4ccc5ncccc5c4)c3n2)cc1 | 5.13 | 7.76 | 

SMILES | pIC50 (NCI-H1993) | pIC50 [1] | other results
Cc1c(C(C)n2cnc3ncc(-c4cnc5ccccc5c4)nc32)ccc2ncccc12 (configuration not stated) | 6.35 | 8.31 | 
CC(c1cc(F)c2ncccc2c1)n1cnc2ncc(-c3cn[nH]c3)nc21 (configuration not stated) | < 5.00 | 6.55 | 
CC(c1cc2cccnc2cc1F)n1cnc2ncc(-c3cnn(CCO)c3)nc21 (configuration not stated) | 6.76 | 8.35 | 
Cc1nc2ncc(-c3cnn(C)c3)nc2n1Cc1ccc2ncccc2c1 | < 5.00 | 6.19 | 
Cn1cc(-c2cnc3ncn(Cc4ccc5ncccc5c4)c3n2)cn1 | 6.21 |  | 
CC(NC/N=C/c1ccc(C(N)=O)c(F)c1)c1ccc2ncccc2c1 (configuration not stated) | 6.62 | 8.56 | 
Oc1nc2ncc(-c3ccncc3)nc2n1Cc1ccc2ncccc2c1 | < 5.00 | < 6.00 | 
CCC(c1ccc2ncccc2c1F)n1cnc2ncc(-c3cnn(C)c3)nc21 (configuration not stated) |  | 7.87 | 
Fc1ccccc1-c1cnc2ncn(Cc3ccc4ncccc4c3)c2n1 | < 5.00 | 7.61 | 
Cn1cc(-c2cnc3nc(O)n(Cc4ccc5ncccc5c4)c3n2)cn1 | < 5.00 | < 6.00 | 
CCC(c1cc2cccnc2cc1F)n1cnc2ncc(-c3cnn(C)c3)nc21 (configuration not stated) |  | 7.97 | 
CCC(c1ccc2ncccc2c1F)n1cnc2ncc(-c3ccccc3)nc21 (configuration not stated) |  | 7.09 | 
COC(=O)c1ccc(-c2cnc3ncn(C(C)c4ccc5ncccc5c4C)c3n2)cc1F (configuration not stated) |  | 8.23 | 
c1cnc2ccc(Cn3cnc4ncc(-c5cn[nH]c5)nc43)cc2c1 | 5.54 | 7.88 | 
OCCn1cc(-c2cnc3nnn(Cc4ccc5ncccc5c4)c3n2)cn1 [PF-04217903] | 7.47 |  | 
CN(C)c1cccc(-c2cnc3ncn(Cc4ccc5ncccc5c4)c3n2)c1 | < 5.00 | 7.40 | 
CC(NC/N=C/c1cnn(CCO)c1)c1ccc2ncccc2c1 (configuration not stated) | 6.83 | 7.90 | 
CC(c1cc(F)c2ncccc2c1)n1cnc2ncc(-c3cnc4ccccc4c3)nc21 (configuration not stated) | < 5.00 | 6.87 | 
CCC(c1ccc2ncccc2c1F)n1cnc2ncc(-c3cn[nH]c3)nc21 (configuration not stated) |  | 7.42 | 
CC(c1cc(F)c2ncccc2c1)n1cnc2ncc(-c3cnn(C)c3)nc21 (configuration not stated) | < 5.00 | 7.04 | 
Cc1c(C(C)n2cnc3ncc(-c4cnn(C)c4)nc32)ccc2ncccc12 (configuration not stated) | 6.69 | 8.49 | 
CC(c1cc2cccnc2cc1F)n1cnc2ncc(-c3cn[nH]c3)nc21 (configuration not stated) | 6.73 | 8.44 | 
CC(NC/N=C/c1cnn(C)c1)c1ccc2ncccc2c1 (configuration not stated) | 6.71 | 8.60 | 
CC(c1cc(F)c2ncccc2c1)n1cnc2ncc(-c3ccncc3)nc21 (configuration not stated) | < 5.00 | 6.72 | 
